Reference: paper PMC8217813, “Bridging Computational Vaccinology and Vaccine Development Through Systematic Identification, Characterization, and Downselection of Conserved and Variable Circumsporozoite Protein CD4 T Cell Epitopes From Diverse Plasmodium falciparum Strains” (Frontiers in Immunology, 2021)
Peptide text beside a SMILES is read from it.

Target: T1, HLA A*0101 (Homo sapiens, UniProt P04439, A114D/A174V/A182V/D101N/D185E/E176A/E190D/L180R/Q94H/R68K/S129P/T187R/V100A/V91M/W191G)
T1 construct: Pure Protein, LLC (ran the assay)
Test: biochemical
Format: binding
Conditions: allele A0101, cell-free competition with fluorescently labeled control peptide, fluorescence polarization at 72 hours; for IC50: read-out: IC50

In the case of NVDPNANPNV [Cluster 109_3D7], the “IC50 (nM)” value is reported as “Non-Binder”.

For CC(C)C[C@H](NC(=O)[C@H](CCC(N)=O)NC(=O)[C@H](CC(=O)O)NC(=O)[C@H](CCCCN)NC(=O)[C@@H]1CCCN1C(=O)[C@H](CCCCN)NC(=O)[C@H](CC(=O)O)NC(=O)[C@H](C)NC(=O)[C@@H](N)CO)C(=O)N[C@@H](CC(=O)O)C(=O)O [Cluster 350_CVX65] (H-SADKPKDQLD-OH), the IC50 was 8.97 µM.

With LSTEWSPCS [327_3D7 (9)] the “IC50 (nM)” value was “Non-Binder”.

CC(C)[C@H](NC(=O)[C@@H](N)CC(N)=O)C(=O)N[C@@H](CC(=O)O)C(=O)N[C@@H](CCC(=O)O)C(=O)N[C@@H](CC(N)=O)C(=O)N[C@@H](C)C(=O)N[C@@H](CC(N)=O)C(=O)N[C@@H](C)C(=O)N[C@@H](CC(N)=O)C(=O)N[C@@H](CC(N)=O)C(=O)O [Cluster 292_CVX337] (H-NVDENANANN-OH) gave an IC50 of 667 µM.

With ELDYENDIEK [Cluster 357_CVX154] the “IC50 (nM)” value was “Non-Binder”.

CC[C@H](C)[C@H](NC(=O)[C@H](Cc1c[nH]cn1)NC(=O)[C@H](CCCCN)NC(=O)[C@H](CC(=O)O)NC(=O)[C@H](CO)NC(=O)[C@@H]1CCCN1)C(=O)N[C@@H](CCCCN)C(=O)N[C@@H](CCC(=O)O)C(=O)N[C@@H](Cc1ccc(O)cc1)C(=O)O [CL1-62] (H-PSDKHIKEY-OH) gave an IC50 of 24.8 µM.

For CC(C)[C@H](NC(=O)[C@H](CO)NC(=O)[C@H](CO)NC(=O)[C@@H](N)CS)C(=O)N[C@@H](Cc1ccccc1)C(=O)N[C@@H](CC(N)=O)C(=O)N[C@H](C(=O)N[C@H](C(=O)N[C@@H](CC(N)=O)C(=O)O)C(C)C)C(C)C [Cluster 374_3D7] (H-CSSVFNVVN-OH), the IC50 was 82.5 µM.
